From patent US9670227B2, “Thienopyrimidine derivatives, a process for their preparation and pharmaceutical compositions containing them” (LES LABORATOIRES SERVIER, priority 2013, dated 2017)

Tests used:
[1] = tested on: H929 multiple myeloma tumour line; experiment: In vitro cytotoxicity, Microculture Tetrazolium Assay; assay type: cell-based; details: Homo sapiens, NCI-H929, 48 h, H929 cells, 48 hours exposure, MTT; read-out: IC50 (μM) MTT H929
Description: The cytotoxicity studies were carried out on the H929 multiple myeloma tumour line.
The cells are distributed onto microplates and exposed to the test compounds for 48 hours.

[2] = molecular target: Mcl-1 protein (UniProtKB primary accession number: Q07820) (Homo sapiens, UniProt Q07820); experiment: Inhibition of Mcl-1 by fluorescence polarisation, Method 1; assay type: binding; details: fluorescence polarisation; Method 1, or Method 2; read-out: IC50 (M) Mcl-1 FP
In short: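 Compounds were tested as 11-point serial dilutions at 5% final DMSO against 5 nM Mcl-1 with 1 nM fluorescein-labelled ligand in 10 mM HEPES, 150 mM NaCl, 0.05% Tween 20, pH 7.4. Relative binding potency was read by fluorescence polarisation.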

Chain of Mcl-1 protein (Q07820 whole entry): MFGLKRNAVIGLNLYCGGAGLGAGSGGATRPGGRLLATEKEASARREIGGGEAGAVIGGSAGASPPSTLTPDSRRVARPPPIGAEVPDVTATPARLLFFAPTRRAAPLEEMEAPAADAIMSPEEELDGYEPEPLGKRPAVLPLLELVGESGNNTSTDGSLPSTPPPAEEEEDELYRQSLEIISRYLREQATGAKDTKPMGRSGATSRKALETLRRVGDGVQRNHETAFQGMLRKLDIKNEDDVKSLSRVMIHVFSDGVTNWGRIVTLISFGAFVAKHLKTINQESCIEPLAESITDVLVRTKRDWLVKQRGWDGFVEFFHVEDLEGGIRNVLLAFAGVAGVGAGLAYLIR

Structure (SMILES) | IC50 [1] | IC50 [2]
COc1nccc(COc2ccccc2CC(Oc2ncnc3sc(-c4ccc(F)c(O)c4)c(-c4ccc(OCCN5CCN(C)CC5)c(Cl)c4C)c23)C(=O)O)n1 [Example 595, (2R)-2-{[(5Sa)-5-{3-chloro-2-methyl-4-[2-(4-methylpiperazin-1-yl)ethoxy]phenyl}-6-(4-fluoro-3-hydroxyphenyl)thieno[2,3-d]pyrimidin-4-yl]oxy}-3-{2-[(2-methoxypyrimidin-4-yl)methoxy]phenyl}propanoic acid] | 0.114 µM | 6.2e-09 M
COc1nccc(COc2ccccc2CC(Oc2ncnc3sc(-c4ccc(F)c(OCCN5CCOCC5)c4)c(-c4ccc(OCCN5CCN(C)CC5)c(Cl)c4C)c23)C(=O)O)n1 [Example 596, (2R)-2-[((5Sa)-5-{3-chloro-2-methyl-4-[2-(4-methylpiperazin-1-yl)ethoxy]phenyl}-6-{4-fluoro-3-[2-(morpholin-4-yl)ethoxy]phenyl}thieno[2,3-d]pyrimidin-4-yl)oxy]-3-{2-[(2-methoxypyrimidin-4-yl)methoxy]phenyl}propanoic acid] | 0.12 µM | 2.7e-09 M
COc1nccc(COc2ccccc2CC(Oc2ncnc3sc(-c4ccc(F)c(OCCO)c4)c(-c4ccc(OCCN5CCN(C)CC5)c(Cl)c4C)c23)C(=O)O)n1 [Example 597, (2R)-2-[((5Sa)-5-{3-chloro-2-methyl-4-[2-(4-methylpiperazin-1-yl)ethoxy]phenyl}-6-[4-fluoro-3-(2-hydroxyethoxy)phenyl]thieno[2,3-d]pyrimidin-4-yl)oxy]-3-{2-[(2-methoxypyrimidin-4-yl)methoxy]phenyl}propanoic acid] | 0.449 µM | 6.2e-09 M
COCCOc1cc(-c2sc3ncnc(OC(Cc4ccccc4OCc4ccnc(OC)n4)C(=O)O)c3c2-c2ccc(OCCN3CCN(C)CC3)c(Cl)c2C)ccc1F [Example 598, (2R)-2-[((5Sa)-5-{3-chloro-2-methyl-4-[2-(4-methylpiperazin-1-yl)ethoxy]phenyl}-6-[4-fluoro-3-(2-methoxyethoxy)phenyl]thieno[2,3-d]pyrimidin-4-yl)oxy]-3-{2-[(2-methoxypyrimidin-4-yl)methoxy]phenyl}propanoic acid] | 0.097 µM | 7.8e-09 M
CCCCn1nccc1COc1ccccc1CC(Oc1ncnc2sc(-c3ccc(C#N)cc3)c(-c3ccc(OCCN4CCN(C)CC4)c(Cl)c3C)c12)C(=O)O [Example 600, (2R)-3-{2-[(1-butyl-1H-pyrazol-5-yl)methoxy]phenyl}-2-{[(5Sa)-5-{3-chloro-2-methyl-4-[2-(4-methylpiperazin-1-yl)ethoxy]phenyl}-6-(4-cyanophenyl)thieno[2,3-d]pyrimidin-4-yl]oxy}propanoic acid] | 0.031 µM | 4.1e-09 M
CCCCn1nccc1COc1ccccc1CC(Oc1ncnc2sc(-c3ccc(CC)cc3)c(-c3ccc(OCCN4CCN(C)CC4)c(Cl)c3C)c12)C(=O)O [Example 601, (2R)-3-{2-[(1-butyl-1H-pyrazol-5-yl)methoxy]phenyl}-2-{[(5Sa)-5-{3-chloro-2-methyl-4-[2-(4-methylpiperazin-1-yl)ethoxy]phenyl}-6-(4-ethylphenyl)thieno[2,3-d]pyrimidin-4-yl]oxy}propanoic acid] | 0.133 µM | 1.2e-08 M
CCCCn1nccc1COc1ccccc1CC(Oc1ncnc2sc(-c3ccc(O)cc3)c(-c3ccc(OCCN4CCN(C)CC4)c(Cl)c3C)c12)C(=O)O [Example 602, (2R)-3-{2-[(1-butyl-1H-pyrazol-5-yl)methoxy]phenyl}-2-{[(5Sa)-5-{3-chloro-2-methyl-4-[2-(4-methylpiperazin-1-yl)ethoxy]phenyl}-6-(4-hydroxyphenyl)thieno[2,3-d]pyrimidin-4-yl]oxy}propanoic acid] | 0.156 µM | 3.7e-09 M
